Measured values: patent US10329304B2, “Compounds and methods for inhibition of hedgehog signaling and phosphodiesterase” (Vanderbilt University, priority 2014, dated 2019)
“Also recorded” adds a separate entry of the source. Like-named read-outs stand apart in the source and are kept apart here.

Legend:
IFT88 localization = assay: IFT88 immunostaining in NIH3T3 cells; type: cell-based; settings: EGM 5 μM, ciliobrevin D 100 μM
Excerpt: To investigate whether the disruption of the cilium-to-nucleus trafficking of Gli2 by eggmanone was due to a general defect in the retrograde transport within the primary cilium, we compared the effect of the cytoplasmic dynein motor inhibitor ciliobrevin D with the effect of eggmanone on the intraflagellar transport protein 88 (IFT88) trafficking^19. […] Thus, the effects of eggmanone on Gli2 trafficking is specific, rather than an indirect consequence of a global defect in ciliary transport machinery.

TM3-Gli-Luc cells = assay: TM3-Gli-Luc cell viability (Cell Titer Glo, LD50); type: cell-based
Description: On the day of cell plating, 96-well plates were coated with 50 μL/well of sterile 0.1% gelatin for 5 minutes then aspirated and replaced with 50 μL/well of TM3 Culture Medium. TM3-Gli-Luc cells were seeded at a density of 5,000 cells/well in TM3 Culture Medium and incubated for 24 hours. A master mix of 20 nM SAG in TM3Luc Medium was prepared, and small molecule solutions were prepared by adding the desired amount of compound from 10 mM DMSO stock to TM3Luc Medium containing 20 nM SAG. Negative control was prepared by adding an equi-volume amount of DMSO as compared to small molecule treated conditions to TM3Luc Medium not containing SAG. Cell plating medium was aspirated and replaced with 100 μL/well of prepared small molecule-containing media, and plates were incubated for 48 hours before proceeding to luciferase activity and cell viability reading.
TM3Luc Medium from compound treated plates was aspirated and replaced with 82 μL/well of Glo Lysis Buffer (Promega, Madison, Wis., USA), and plates were shaken at 300 rpm and room temperature for 12 minutes. Lysate was split between two white 96-well plates, 45 μL/well and 25 μL/well for luciferase reading and cell viability respectively. For luciferase activity monitoring, 45 μL/well of Steady Glo (Promega, Madison, Wis., USA) was added to 45 μL/well of cell lysate, incubated at room temperature for 5 minutes, then luminescence was measured on a Turner Biosystems Modulus Microplate Reader (Sunnyvale, Calif., USA) with an integration time of 0.5 seconds. For cell viability measurement, 25 μL/well of Cell Titer Glo (Promega, Madison, Wis., USA) (prepared by 1:10 dilution with Glo Lysis Buffer) was added to 25 μL/well of cell lysate, incubated at room temperature for 5 minutes, then luminescence was measured as above.
All raw data was divided by the average of positive control cell titer data to arrive at percent cells remaining compared to positive control. […] At least two independent assays tested on separate days were averaged to provide LD50±standard error of the mean.

[1] = system: Hedgehog signaling (TM3-Gli-Luc); assay: TM3-Gli-Luc luciferase reporter assay stimulated with 20 nM SAG; type: cell-based
Procedure, shortened: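 TM3-Gli-Luc cells on 0.1% gelatin in DMEM/F12 with 2.5% FBS, treated 48 h with compound plus 20 nM SAG. Steady-Glo luminescence normalized to CellTiter-Glo viability, DMSO-only (no SAG) background subtracted, percent of SAG control. EC50 averaged from ≥2 independent days ±SEM.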

Gli1 transcription = assay: Sufu−/− mouse embryonic fibroblasts qRT-PCR; type: cell-based; settings: Gli1 and Ptch1
Excerpt: In light of EGM1's ability to halt Hh transcriptional activity at a node downstream of the negative regulator Sufu, and thus also downstream of Smo, we sought to confirm mode of action retention with our most promising analogs. Therefore, we employed Sufu−/− mouse embryonic fibroblasts (MEF) that display constitutively active transcription of Hh target genes Gli1 and Ptch1 and monitored the ability of our optimized analogs to repress signaling via quantitative reverse transcription-PCR (qRT-PCR). […] We then evaluated improved analogs from multiple structural classes including those from Table 1 with cyclohexylthiophene cores as well as from Table 13 with structurally distinct core modifications.
Sufu^−/− cells were seeded into 12-well plates at a density of 100,000 cells/well in D10 FBS and incubated for 24 hours. Small molecule solutions were prepared by adding the desired amount of compound from 10 mM DMSO stock to D0.5 FBS. Negative control was prepared by adding an equi-volume amount of DMSO to D0.5 FBS as compared to small molecule treated conditions. Cell plating medium was aspirated and replaced with 1 mL of prepared small molecule-containing media, and plates were incubated for 24 hours before proceeding to RNA isolation.
Cells were washed 1× with 1× phosphate-buffered saline (PBS) then RNA was isolated using the Qiagen RNeasy Mini Kit (Qiagen, Germantown, Md., USA) according to the manufacturer's protocol, eluting RNA from the spin column with 30 μL of RNase-free water. RNA was placed on ice and immediately subjected to reverse transcription. Remaining RNA was stored at −80° C.
Reverse transcription polymerase chain reaction (RT-PCR) was performed with the Applied Biosystems High Capacity cDNA Reverse Transcription Kit (ThermoFisher Scientific, Waltham, Mass., USA) using an Eppendorf MasterCycler. Each 20 μL reaction contained 0.5 μg of total RNA, 2 μL of 10×RT Buffer, 0.8 μL of 25×dNTP Mix (100 mM), 2 μL of 10×RT Random Primers, 1 μL of MultiScribe® Reverse Transcriptase (50 U/μL), 1 μL of Recombinant RNasin® Ribonuclease Inhibitor (40 U/μL) (Promega, Madison, Wis., USA), and nuclease-free water. Reverse transcription was performed with the following program: 25° C. for 10 minutes, 37° C. for 120 minutes, and 85° C. for 5 minutes. The cDNA was subjected to quantitative real-time PCR (Q-PCR) or stored at −20° C.
Quantitative real-time PCR was performed on an Applied Biosystems 7900 HT Fast Real Time PCR System in 384-well format. Each cDNA sample was assayed in triplicate with both probe of interest and control probe. Master mixes for each probe were prepared corresponding to 10 μL of Applied Biosystems TaqMan Universal PCR Master Mix (ThermoFisher Scientific, Waltham, Mass., USA), 1 μL of primer, and nuclease-free water corresponding to a volume providing 20 μL reactions when loading an average of 50 ng of cDNA. Quantitative real-time PCR was run with the following thermal cycling protocol: 50° C. for 2 min., 95° C. for 10 min., and 40 cycles of 95° C. for 15 seconds, 60° C. for 1 min., then fluorescence reading. The following FAM probes were purchased from Life Technologies (Carlsbad, Calif., USA): mouse GAPDH, Mm99999915_g1; mouse Gli1, Mm00494646_g1; mouse Ptch1, Mm01306905_m1.
Quantitative real-time PCR data for Hh signaling inhibition was quantitated using the ΔΔCt method. Control probe values were subtracted from probe of interest values to arrive at the ΔCt value. The ΔCt value was transformed by 2-^ΔCt to arrive at the ΔΔCt value. All ΔΔCt values were divided by the average negative control ΔΔCt value to provide percent Hh signaling activity. Percent inhibition values were derived by calculating the inverse of percent activity. Data is reported as mean±standard error of the mean (SEM), representing at least two biological replicates, each quantitated in triplicate.

[2] = Lipophilic efficiency (LipE = pEC50 − cLogP) and cLogP
Procedure, shortened: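 pEC50 came from TM3-Gli-Luc Gli-responsive luciferase reporter cells stimulated with 20 nM SAG, with non-specific cytotoxicity monitored in parallel. LipE was calculated by subtracting cLogP from pEC50.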

[3] = biological target: T1, Smo cyclopamine (Cyc) binding site (Homo sapiens, UniProt Q99835); assay: BODIPY-cyclopamine competition in HEK-293T cells overexpressing Smo; settings: KAAD-Cyc 200 nM; analogs at 10- to 20-fold their EC50s
T1 construct: expressed in transfected cells; host or cells: HEK-293T
Description: Thus, HEK-293T cells overexpressing Smo were concurrently treated with 5 nM BODIPY-Cyc and molecules of interest.

consensus PDE4D sequence = consensus PDE4D sequence (Homo sapiens, UniProt Q08499); assay: PDE4D inhibition (consensus PDE4D sequence); type: biochemical
Description: First, the contribution of PDE4 was revisited as a potential explanation for the observed mechanistic drift.

PDE4D = PDE4D (Homo sapiens, UniProt Q08499); assay: PDE4 inhibition assay (PDE4D IC50); type: biochemical; settings: mean ± SEM, normalized to DMSO; read-out: PDE4D IC50
Procedure, shortened: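 PDE4D incubated 60 min at room temperature in duplicate with 100 nM FAM-cAMP and compound (1% DMSO final) in Tris-HCl pH7.4, 10 mM MgCl2, 0.05% Tween 20. FAM-AMP detected with binding-agent nanobeads after a further 60 min, read at 485/528 nm.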

[4] = TM3-Gli-Luc reporter line stimulated with 20 nM SAG, mean ± SEM, Table 14, read-out: TM3-Gli-Luc EC50
[5] = TM3-Gli-Luc reporter line stimulated with 20 nM SAG, mean ± SEM, Table 13, read-out: TM3-Gli-Luc EC50
[6] = calculated as pEC50 - cLogP (Molinspiration Cheminformatics), Table 13

T1 sequence (Q99835 28-787): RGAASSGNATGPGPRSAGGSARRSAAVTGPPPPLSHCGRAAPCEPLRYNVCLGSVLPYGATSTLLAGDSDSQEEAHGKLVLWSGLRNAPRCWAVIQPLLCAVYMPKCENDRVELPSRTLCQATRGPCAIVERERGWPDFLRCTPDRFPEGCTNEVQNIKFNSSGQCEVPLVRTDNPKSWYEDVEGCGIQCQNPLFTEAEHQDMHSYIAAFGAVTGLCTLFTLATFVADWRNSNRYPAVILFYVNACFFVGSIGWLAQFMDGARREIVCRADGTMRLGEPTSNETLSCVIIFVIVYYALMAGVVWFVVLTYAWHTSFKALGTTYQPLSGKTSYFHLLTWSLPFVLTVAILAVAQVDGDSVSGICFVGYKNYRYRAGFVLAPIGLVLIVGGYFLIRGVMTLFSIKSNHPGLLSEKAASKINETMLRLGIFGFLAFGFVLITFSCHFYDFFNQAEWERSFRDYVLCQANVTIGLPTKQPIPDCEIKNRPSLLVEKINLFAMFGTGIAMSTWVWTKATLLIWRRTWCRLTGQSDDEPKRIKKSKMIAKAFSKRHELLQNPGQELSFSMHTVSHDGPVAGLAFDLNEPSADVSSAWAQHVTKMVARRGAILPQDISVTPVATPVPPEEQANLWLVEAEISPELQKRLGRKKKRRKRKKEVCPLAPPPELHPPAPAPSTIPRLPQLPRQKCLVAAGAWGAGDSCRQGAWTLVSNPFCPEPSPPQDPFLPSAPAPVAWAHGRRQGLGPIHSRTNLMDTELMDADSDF
Chain of consensus PDE4D sequence (Q08499 whole entry): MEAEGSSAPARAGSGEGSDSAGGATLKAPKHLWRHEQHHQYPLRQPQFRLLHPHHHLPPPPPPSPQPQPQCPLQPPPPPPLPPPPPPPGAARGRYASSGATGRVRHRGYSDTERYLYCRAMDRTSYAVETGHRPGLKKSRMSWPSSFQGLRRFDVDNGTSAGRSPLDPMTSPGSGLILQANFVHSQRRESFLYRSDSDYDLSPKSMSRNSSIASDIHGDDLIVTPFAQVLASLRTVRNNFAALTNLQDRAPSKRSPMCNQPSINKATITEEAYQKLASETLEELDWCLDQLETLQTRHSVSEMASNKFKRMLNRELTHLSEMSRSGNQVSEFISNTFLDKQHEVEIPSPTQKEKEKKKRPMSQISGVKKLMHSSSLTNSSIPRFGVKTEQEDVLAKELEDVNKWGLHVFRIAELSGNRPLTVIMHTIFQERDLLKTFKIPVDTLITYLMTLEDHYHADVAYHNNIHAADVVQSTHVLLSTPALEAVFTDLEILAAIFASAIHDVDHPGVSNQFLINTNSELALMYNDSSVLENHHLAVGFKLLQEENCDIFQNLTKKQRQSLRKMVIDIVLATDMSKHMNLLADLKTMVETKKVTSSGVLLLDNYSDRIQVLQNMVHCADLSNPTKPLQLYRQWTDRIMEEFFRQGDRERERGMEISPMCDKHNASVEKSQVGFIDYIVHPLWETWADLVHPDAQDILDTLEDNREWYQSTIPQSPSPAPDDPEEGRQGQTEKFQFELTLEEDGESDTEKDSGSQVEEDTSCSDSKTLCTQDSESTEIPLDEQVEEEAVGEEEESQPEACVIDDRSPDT
Chain of PDE4D (Q08499 whole entry): as above

Structure (SMILES) | EC50 [1, 4] [nM] | Transcriptional inhibition in the Sufu−/− cell line, in words (Gli1 transcription) | LipE ([2]; pEC50 - cLogP, Table 14) | Displacement of BODIPY-cyclopamine (5 nM) from Smo [3] | EC50 [1, 5] [nM] | LipE [2, 6] | PDE4D inhibition in words (consensus PDE4D sequence) | further results
N#CC(=C(O)c1ccc(Cl)cc1Cl)c1nc2cc(Cl)ccc2c(=O)[nH]1 [Ciliobrevin D, reference compound] |  |  |  |  |  |  |  | IFT88 localization in the cilium (IFT88 localization): perturbed the localization of IFT88 in the cilium; IFT88 localization in the cilium (IFT88 localization; listed as ciliobrevin D): severely disrupted the IFT88 localization in the cilium
C=C(C)Cn1c(SCC(=O)N2CCCCC2C)nc2sc3c(c2c1=O)CCCC3 (stereo not shown) [Formula 9m] | 2320 ± 730 | general ability to inhibit transcriptional activity | 0.94 |  |  |  |  | LD50 (TM3-Gli-Luc cells): 16.7 µM; TM3-Gli-Luc LD50 (TM3-Gli-Luc cells; mean ± standard error of the mean): 16.7 ± 0.25 µM; reduction in potency versus EGM1 [1]: ~2 fold; EC50 ([1]; 20 nM SAG, mean ± standard error of the mean, read-out: TM3-Gli-Luc EC50): 2320 ± 730 nM; LipE ([2]; Calculated as pEC50 - cLogP, Molinspiration Cheminformatics): 0.94
O=C(CSc1nc2ccccc2c(=O)n1C1CC1)c1cccs1 [Formula 14b] | 685 ± 20 | lack of Sufu−/− transcriptional inhibition | 2.78 | do not displace the binding of BODIPY-cyclopamine; also recorded: failed to compete for the Smo binding site | 685 ± 20 | 2.78 |  | Hh inhibitory activity / potency in words ([1]; 20 nM SAG): potency improvements over EGM1; EC50 ([1]; 20 nM SAG, read-out: EC50): 685 nM
O=C(CSc1nc2sccc2c(=O)n1C1CC1)c1cccs1 [Formula 19b] | 933 ± 100 | lack of Sufu−/− transcriptional inhibition | 2.89 | do not displace the binding of BODIPY-cyclopamine; also recorded: failed to compete for the Smo binding site | 933 ± 100 | 2.89 |  | 
O=C(CSc1nc2sccc2c(=O)n1C1CC1)c1ccccc1 [Formula 19c] | 82 ± 10 | lack of Sufu−/− transcriptional inhibition | 3.84 | do not displace the binding of BODIPY-cyclopamine; also recorded: failed to compete for the Smo binding site | 82 ± 10 | 3.84 | only modest ICs against PDE4D | Non-specific cellular toxicity (TM3-Gli-Luc cells): no non-specific cellular toxicity
O=c1c2ccsc2nc(SCC(O)c2ccccc2)n1C1CC1 (stereo not shown) [Formula 20a] |  | lack of Sufu−/− transcriptional inhibition | 3.41 | do not displace the binding of BODIPY-cyclopamine; also recorded: failed to compete for the Smo binding site |  |  | only modest ICs against PDE4D | IC50 (PDE4D): 6070 ± 1500 nM
